Experimental data: patent US7960377B2 (priority 2008, dated 2011)
pEC50: −log10 of the molar value. Read-outs that look alike come from different tables or passages of the source.

Key:
Test in all cases: cell-based
human CB2 receptor = human CB2 receptor (Homo sapiens, UniProt P34972); assay type: cell-based
rat CB2 receptor = biological target: T1, rat CB2 receptor (Rattus norvegicus, UniProt Q9QZN9); assay type: cell-based; conditions: for inverse agonist mark, rat CB2 receptor: asterisk at the compound number
T1 sequence (Q9QZN9 1-360): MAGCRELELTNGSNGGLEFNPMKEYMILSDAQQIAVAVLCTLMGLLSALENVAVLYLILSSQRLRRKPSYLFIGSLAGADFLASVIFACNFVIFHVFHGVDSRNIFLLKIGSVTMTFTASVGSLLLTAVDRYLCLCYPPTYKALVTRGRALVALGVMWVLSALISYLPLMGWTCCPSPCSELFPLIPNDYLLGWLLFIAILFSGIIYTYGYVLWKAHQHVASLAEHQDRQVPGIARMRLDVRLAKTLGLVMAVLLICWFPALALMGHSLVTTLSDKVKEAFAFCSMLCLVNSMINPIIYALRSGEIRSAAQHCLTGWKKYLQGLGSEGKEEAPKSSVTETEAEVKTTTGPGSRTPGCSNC

human CB1 receptor = human CB1 receptor (Homo sapiens, UniProt P21554)
Sequence of human CB1 receptor (P21554 whole entry): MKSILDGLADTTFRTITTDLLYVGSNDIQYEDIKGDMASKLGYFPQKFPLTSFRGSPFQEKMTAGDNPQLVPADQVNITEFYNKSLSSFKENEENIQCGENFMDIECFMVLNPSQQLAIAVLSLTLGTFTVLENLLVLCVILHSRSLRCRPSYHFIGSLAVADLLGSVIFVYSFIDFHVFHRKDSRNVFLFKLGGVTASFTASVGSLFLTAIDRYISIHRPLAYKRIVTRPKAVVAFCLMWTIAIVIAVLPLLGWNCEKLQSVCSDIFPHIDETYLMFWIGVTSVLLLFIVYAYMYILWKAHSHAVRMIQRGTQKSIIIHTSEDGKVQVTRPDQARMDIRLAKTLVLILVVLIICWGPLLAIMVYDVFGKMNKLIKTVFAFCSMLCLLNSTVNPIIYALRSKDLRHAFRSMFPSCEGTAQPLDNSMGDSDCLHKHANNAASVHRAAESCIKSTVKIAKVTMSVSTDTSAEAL

[1] = change in intracellular cAMP, CHO-K1 hCB2 cells, class AR, read-out: EC50 values for human CB2 receptor
[2] = asterisk at the compound number

Sequence of human CB2 receptor (P34972 whole entry): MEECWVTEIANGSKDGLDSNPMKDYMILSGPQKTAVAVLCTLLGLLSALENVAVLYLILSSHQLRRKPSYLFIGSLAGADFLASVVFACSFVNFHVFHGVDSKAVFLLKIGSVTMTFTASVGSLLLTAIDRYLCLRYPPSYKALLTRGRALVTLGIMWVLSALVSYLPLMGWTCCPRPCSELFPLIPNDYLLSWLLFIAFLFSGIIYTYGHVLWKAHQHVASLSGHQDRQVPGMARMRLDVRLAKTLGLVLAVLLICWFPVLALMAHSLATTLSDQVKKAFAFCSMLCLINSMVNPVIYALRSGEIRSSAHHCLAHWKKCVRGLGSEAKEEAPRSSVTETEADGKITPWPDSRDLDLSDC

Row | SMILES | pEC50 (human CB2 receptor) | pEC50 (human CB2 receptor; [1]) | pEC50 (human CB1 receptor) | further results
1 | CC(C)(C)NC(=O)c1cnc2c(c1)N(S(=O)(=O)c1ccc(F)cc1)CCO2 [Example 7, N-tert-butyl-1-(4-fluoro-phenylsulfonyl)-2,3-dihydro-1H-pyrido[2,3-b][1,4]oxazine-7-carboxamide] | ≥ 7.52 | – | – | pEC50 (rat CB2 receptor): ≥ 7.52
2 | CC1(C)CNC(c2cnc3c(c2)N(S(=O)(=O)c2ccc(C(F)(F)F)cc2)CCO3)=N1 [Example 224, 7-(4,4-dimethyl-4,5-dihydro-1H-imidazol-2-yl)-1-(4-(trifluoromethyl)phenylsulfonyl)-2,3-dihydro-1H-pyrido[2,3-b][1,4]oxazine] | – | < 4.52 | < 4.52 | –
3 | CC(C)(CO)NC(=O)c1cnc2c(c1)N(S(=O)(=O)N1CCc3ccccc3C1)CCO2 [Example 190, 1-(3,4-dihydroisoquinolin-2(1H)-ylsulfonyl)-N-(1-hydroxy-2-methylpropan-2-yl)-2,3-dihydro-1H-pyrido[2,3-b][1,4]oxazine-7-carboxamide] | < 4.52 | – | < 4.52 | –
4 | O=C(c1cnc2c(c1)N(S(=O)(=O)c1ccc(Cl)c(Cl)c1)CCO2)N1CCN(S(=O)(=O)c2ccccc2)CC1 [Example 118, (1-(3,4-dichlorophenyl-sulfonyl)-2,3-dihydro-1H-pyrido[2,3-b][1,4]oxazin-7-yl)(4-(phenylsulfonyl)piperazin-1-yl)methanone] | – | < 4.52 | – | inverse agonist mark, rat CB2 receptor (rat CB2 receptor): 118*, 120, 123, 125, 127, 134, 143, 145, 161, 174, 175, 176, 198,
5 | CC(C)(C)c1cc(NC(=O)c2cnc3c(c2)N(S(=O)(=O)N2CCC(C(F)(F)F)CC2)CCO3)no1 [Example 154, N-(5-tert-butylisoxazol-3-yl)-1-(4-(trifluoromethyl)piperidin-1-ylsulfonyl)-2,3-dihydro-1H-pyrido[2,3-b][1,4]oxazine-7-carboxamide] | – | – | – | inverse agonist mark, human CB2 receptor (human CB2 receptor; [2]): 121, 124, 131, 136, 137, 138, 139, 146, 150, 152, 154*, 155, 157,; pEC50 (rat CB2 receptor): ≥ 7.52; inverse agonist mark, rat CB2 receptor (rat CB2 receptor): 146, 148, 149, 150, 151, 152, 153*, 154*, 155, 156, 157, 163, 164,
6 | O=C(NC1(C(=O)O)CCC1)c1cnc2c(c1)N(S(=O)(=O)c1ccc(C(F)(F)F)cc1)CCO2 [Example 208, 1-(1-(4-(trifluoromethyl)phenylsulfonyl)-2,3-dihydro-1H-pyrido[2,3-b][1,4]oxazine-7-carboxamido)cyclobutanecarboxylic acid] | – | < 4.52 | < 4.52 | –
7 | CC(C)(C)c1nnc(-c2cnc3c(c2)N(S(=O)(=O)c2ccc(F)cc2)CCO3)o1 [Example 212, 7-(5-tert-butyl-1,3,4-oxadiazol-2-yl)-1-(4-fluorophenylsulfonyl)-2,3-dihydro-1H-pyrido[2,3-b][1,4]oxazine] | ≥ 7.52 | – | – | pEC50 (rat CB2 receptor): ≥ 7.52
8 | O=C(N[C@H]1CC[C@H](O)CC1)c1cnc2c(c1)N(S(=O)(=O)c1ccc(Cl)c(Cl)c1)CCO2 [Example 134, 1-(3,4-dichlorophenyl-sulfonyl)-N-(trans-4-hydroxycyclohexyl)-2,3-dihydro-1H-pyrido[2,3-b][1,4]oxazine-7-carboxamide] | – | < 4.52 | < 4.52 | –
9 | CCN(CC)C(=O)c1cnc2c(c1)N(S(=O)(=O)c1cccnc1)CCO2 [Example 18, N,N-diethyl-1-(pyridin-3-ylsulfonyl)-2,3-dihydro-1H-pyrido[2,3-b][1,4]oxazine-7-carboxamide] | – | < 4.52 | < 4.52 | –
10 | CC(C)(C)NC(=O)c1cnc2c(c1)N(S(=O)(=O)N1CCC(F)(F)CC1)CCO2 [Example 156, N-tert-butyl-1-(4,4-difluoropiperidin-1-ylsulfonyl)-2,3-dihydro-1H-pyrido[2,3-b][1,4]oxazine-7-carboxamide] | ≥ 7.52 | – | – | pEC50 (rat CB2 receptor): ≥ 7.52
11 | CC(C)(C)NC(=O)c1cnc2c(c1)N(S(=O)(=O)c1ccccc1OC(F)(F)F)CCO2 [Example 84, N-tert-butyl-1-(2-(trifluoromethoxy)phenyl-sulfonyl)-2,3-dihydro-1H-pyrido[2,3-b][1,4]oxazine-7-carboxamide] | – | < 4.52 | < 4.52 | –
12 | CCC(C)(C)NC(=O)c1cnc2c(c1)N(S(=O)(=O)N1CCc3ccccc3C1)CCO2 [Example 189, 1-(3,4-dihydroisoquinolin-2(1H)-ylsulfonyl)-N-tert-pentyl-2,3-dihydro-1H-pyrido[2,3-b][1,4]oxazine-7-carboxamide] | < 4.52 | – | < 4.52 | –
13 | CCC(C)(C)NC(=O)c1cnc2c(c1)N(S(=O)(=O)N1CCC(c3ccccc3)CC1)CCO2 [Example 159, N-tert-pentyl-1-(4-phenylpiperidin-1-ylsulfonyl)-2,3-dihydro-1H-pyrido[2,3-b][1,4]oxazine-7-carboxamide] | < 4.52 | – | < 4.52 | –
14 | O=C(O)CC1COCCN1C(=O)c1cnc2c(c1)N(S(=O)(=O)c1ccc(C(F)(F)F)cc1)CCO2 (centres unmarked) [Example 207] | – | < 4.52 | – | pEC50 (rat CB2 receptor; change in intracellular cAMP, CHO-K1 rCB2 cells, class AR, read-out: EC50 values for rat CB2 receptor): < 4.52
15 | CC(C)(C)NC(=O)c1cnc2c(c1)N(S(=O)(=O)c1cccc3ccccc13)CCO2 [Example 87, N-tert-butyl-1-(naphthalen-1-ylsulfonyl)-2,3-dihydro-1H-pyrido[2,3-b][1,4]oxazine-7-carboxamide] | < 4.52 | – | < 4.52 | –
16 | O=C(NCCO)c1cnc2c(c1)N(S(=O)(=O)c1ccc(Cl)cc1F)CCO2 [Example 115, 1-(4-chloro-2-fluorophenylsulfonyl)-N-(2-hydroxyethyl)-2,3-dihydro-1H-pyrido[2,3-b][1,4]oxazine-7-carboxamide] | – | < 4.52 | < 4.52 | –
17 | CCC(C)(C)NC(=O)c1cnc2c(c1)N(S(=O)(=O)N1CCC(Cl)CC1)CCO2 [Example 185, 1-(4-chloropiperidin-1-ylsulfonyl)-N-tert-pentyl-2,3-dihydro-1H-pyrido[2,3-b][1,4]oxazine-7-carboxamide] | < 4.52 | – | – | pEC50 (rat CB2 receptor): ≥ 7.52
18 | CN1CCN(S(=O)(=O)N2CCOc3ncc(C(=O)NC(C)(C)C)cc32)CC1 [Example 174, N-tert-butyl-1-(4-methylpiperazin-1-ylsulfonyl)-2,3-dihydro-1H-pyrido[2,3-b][1,4] oxazine-7-carboxamide] | < 4.52 | – | < 4.52 | –
19 | CCN(CCN(C)C)C(=O)c1cnc2c(c1)N(S(=O)(=O)c1ccc(C(F)(F)F)cc1)CCO2 [Example 38, N-(2-(dimethylamino)-ethyl)-N-ethyl-1-(4-(trifluoromethyl)phenylsulf-onyl)-2,3-dihydro-1H-pyrido[2,3-b][1,4]oxazine-7-carboxamide] | – | < 4.52 | < 4.52 | –
20 | O=C(c1cnc2c(c1)N(S(=O)(=O)c1ccc(Cl)c(Cl)c1)CCO2)N1CCN(c2ccccn2)CC1 [Example 117] | < 4.52 | – | – | inverse agonist mark, human CB1 receptor (human CB1 receptor; [2]): 11, 24, 25, 42, 43*, 67, 117*, 121, 124, 131, 132, 148, 150, 151,
21 | CC(C)(C)NC(=O)c1cnc2c(c1)N(S(=O)(=O)N1CCC(c3ccccc3)CC1)CCO2 [Example 158, N-tert-butyl-1-(4-phenylpiperidin-1-ylsulfonyl)-2,3-dihydro-1H-pyrido[2,3-b][1,4]oxazine-7-carboxamide] | < 4.52 | – | < 4.52 | –
22 | CC(C)(C)NC(=O)c1cnc2c(c1)N(S(=O)(=O)c1ccc3ccccc3c1)CCO2 [Example 88, N-tert-butyl-1-(naphthalen-2-ylsulfonyl)-2,3-dihydro-1H-pyrido[2,3-b][1,4]oxazine-7-carboxamide] | < 4.52 | – | < 4.52 | –
23 | CC(C)(C)NC(=O)c1cnc2c(c1)N(S(=O)(=O)Cc1ccc(C(F)(F)F)cc1)CCO2 [Example 63, N-tert-butyl-1-(4-(trifluoromethyl)benzylsulf-onyl)-2,3-dihydro-1H-pyrido[2,3-b][1,4]oxazine-7-carboxamide] | – | < 4.52 | < 4.52 | –
24 | Cc1cc(S(=O)(=O)N2CCOc3ncc(C(=O)NC(C)(C)C)cc32)c(C)s1 [Example 91, N-tert-butyl-1-(2,5-dimethylthiophen-3-ylsulfonyl)-2,3-dihydro-1H-pyrido[2,3-b][1,4]oxazine-7-carboxamide] | < 4.52 | – | < 4.52 | –
25 | CC(C)(CO)CNC(=O)c1cnc2c(c1)N(S(=O)(=O)N1CCC(c3ccccc3)CC1)CCO2 [Example 161, N-(3-hydroxy-2,2-dimethylpropyl)-1-(4-phenylpiperidin-1-ylsulfonyl)-2,3-dihydro-1H-pyrido[2,3-b][1,4]oxazine-7-carboxamide] | < 4.52 | – | < 4.52 | –
26 | Cn1cnc(S(=O)(=O)N2CCOc3ncc(C(=O)NC4CCCC4)cc32)c1 [Example 31, N-cyclopentyl-1-(1-methyl-1H-imidazol-4-ylsulfonyl)-2,3-dihydro-1H-pyrido[2,3-b][1,4] oxazine-7-carboxamide] | – | < 4.52 | < 4.52 | –
27 | Cc1cccc(CS(=O)(=O)N2CCOc3ncc(C(=O)NC(C)(C)C)cc32)c1 [Example 81, N-tert-butyl-1-(3-methylbenzylsulfonyl)-2,3-dihydro-1H-pyrido[2,3-b][1,4]oxazine-7-carboxamide] | – | < 4.52 | < 4.52 | –
28 | CCS(=O)(=O)N1CCOc2ncc(C(=O)NC(C)(C)C)cc21 [Example 80, N-tert-butyl-1-(ethylsulfonyl)-2,3-dihydro-1H-pyrido[2,3-b][1,4]oxazine-7-carboxamide] | < 4.52 | – | < 4.52 | –
29 | COCCCNC(=O)c1cnc2c(c1)N(S(=O)(=O)c1cccnc1)CCO2 [Example 19, N-(3-methoxypropyl)-1-(pyridin-3-ylsulfonyl)-2,3-dihydro-1H-pyrido[2,3-b][1,4]oxazine-7-carboxamide] | – | < 4.52 | < 4.52 | –
